Experimental data published in patent US11976059B2 (KOREA RESEARCH INSTITUTE OF CHEMICAL TECHNOLOGY, priority 2018, dated 2024).

Biological target: EGFR L858R/T790M/C797S mutant enzyme (Homo sapiens (Human), UniProt P00533, C797S/L858R/T790M)
Assay: EGFR mutant enzyme inhibition, HTRF system (Cisbio)
Type: biochemical
Conditions: ATP 1 mM, 37° C. for 2 hours
Experimental: In order to evaluate the inhibitory activity of the compound represented by formula 1 according to the present invention against EGFR mutation, the following experiment was performed.
The activity of the compound of the present invention against EGFR mutant enzyme was measured using the HTRF system of Cisbio Co. As an EGFR L858R/T790M/C797S mutant enzyme, a protein provided by SignalChem was purchased and used as an enzyme source.
The composition of the assay buffer used for the activity measurement was as follows: 50 mM Tris-HCl (pH 7.5), 100 mM NaCl, 7.5 mM MgCl2, 3 mM KCl, 0.01% Tween 20, 0.1% BSA, and 1 mM DTT. Herein, an enzyme reaction was performed using a peptide substrate labeled with ATP at the concentration of 1 mM and biotin at the concentration of 0.5 μM. The analysis of the EGFR activity inhibitory effect of the compound was performed according to the following analytical reaction recipe.
Component 1: 4 μl of EGFR mutant enzyme
Component 2: 2 μl of compound solution
Component 3: 4 μl of ATP and biotin-labeled peptide mixture
The enzyme reaction was initiated by mixing the component 1 and the component 2 first and then adding the component 3 thereto. After reacting the mixture at 37° C. for 2 hours, 10 μl of a measurement solution consisting of streptavidin-XL665 and europium-labeled anti-phosphotyrosine antibody provided by Cisbio was added to the enzyme reaction solution, followed by reaction at room temperature for 1 hour. Finally, the ratio of the fluorescence values at 615 nm and 665 nm was calculated using Envision equipment of Perkin-Elmer to quantitatively measure the enzyme activity and confirm the inhibitory ability of the compound. The values measured at 7 concentrations of the compound were analyzed using Prism program (version 5.01, Graphpad Software, Inc.), and the IC50 value, an index of the inhibitory ability of the compound, was calculated.

EGFR L858R/T790M/C797S mutant enzyme, sequence (P00533 25-1210 T790M/C797S/L858R): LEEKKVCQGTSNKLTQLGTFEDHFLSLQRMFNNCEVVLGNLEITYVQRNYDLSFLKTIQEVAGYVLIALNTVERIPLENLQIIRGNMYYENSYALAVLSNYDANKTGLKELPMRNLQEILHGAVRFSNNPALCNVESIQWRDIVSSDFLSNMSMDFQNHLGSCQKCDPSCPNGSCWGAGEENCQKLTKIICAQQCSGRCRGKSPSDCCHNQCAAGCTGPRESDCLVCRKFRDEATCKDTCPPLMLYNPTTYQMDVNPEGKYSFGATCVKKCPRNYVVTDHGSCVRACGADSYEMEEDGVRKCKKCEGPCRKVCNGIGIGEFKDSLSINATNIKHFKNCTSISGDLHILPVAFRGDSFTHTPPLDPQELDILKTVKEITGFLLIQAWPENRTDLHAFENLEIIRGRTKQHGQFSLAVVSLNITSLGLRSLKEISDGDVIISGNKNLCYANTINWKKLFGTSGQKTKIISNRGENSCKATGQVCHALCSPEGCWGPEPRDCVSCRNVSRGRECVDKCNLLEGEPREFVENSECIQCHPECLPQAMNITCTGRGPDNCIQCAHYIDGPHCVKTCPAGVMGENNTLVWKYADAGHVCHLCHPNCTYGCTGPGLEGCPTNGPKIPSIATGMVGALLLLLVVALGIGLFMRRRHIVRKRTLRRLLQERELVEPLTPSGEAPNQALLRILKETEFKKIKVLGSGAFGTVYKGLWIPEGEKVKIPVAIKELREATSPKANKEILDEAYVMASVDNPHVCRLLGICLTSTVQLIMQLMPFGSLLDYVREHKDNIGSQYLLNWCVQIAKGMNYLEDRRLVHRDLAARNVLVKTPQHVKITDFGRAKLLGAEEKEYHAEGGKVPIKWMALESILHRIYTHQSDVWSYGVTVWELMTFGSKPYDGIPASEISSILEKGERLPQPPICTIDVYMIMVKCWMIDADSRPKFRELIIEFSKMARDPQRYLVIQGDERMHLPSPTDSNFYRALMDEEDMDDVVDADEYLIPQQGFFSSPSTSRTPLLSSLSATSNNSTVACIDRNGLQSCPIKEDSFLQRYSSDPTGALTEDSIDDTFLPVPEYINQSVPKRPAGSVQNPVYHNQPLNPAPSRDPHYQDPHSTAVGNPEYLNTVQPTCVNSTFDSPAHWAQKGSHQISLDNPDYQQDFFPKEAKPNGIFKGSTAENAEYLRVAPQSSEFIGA

Compound | IC50
CN1CCC(N2CCN(c3ccc(-c4ccc5c(c4)C(=O)N([C@@H](c4cc6ccccc6[nH]4)c4cc(Cl)ccc4O)C5)cc3)CC2)CC1 [Example 66, (R)-2-((5-chloro-2-hydroxyphenyl)(1H-indole-2-yl)methyl)-6-(4-(4-(1-methylpiperidine-4-yl)piperazine-1-yl)phenyl)isoindolin-1-one] | 410 nM
O=C1c2cc(-c3ccc(N4CCNCC4)cc3)ccc2CN1[C@@H](c1cc2cccnc2[nH]1)c1cc(F)ccc1O [Example 49, (R)-2-((5-fluoro-2-hydroxyphenyl)(1H-pyrrolo[2,3-b]pyridine-2-yl)methyl)-6-(4-(piperazine-4-yl)phenyl)isoindolin-1-one] | 69 nM
O=C1c2ccccc2CN1[C@@H](c1cc2ccccc2[nH]1)c1cc(F)ccc1O [Example 23, (R)-2-((5-fluoro-2-hydroxyphenyl)(1H-indole-2-yl)methyl)isoindolin-1-one] | 2400 nM
N[C@@H]1CCN(c2ccc(-c3ccc4c(c3)C(=O)N([C@@H](c3cc5ccccc5[nH]3)c3cc(F)ccc3O)C4)cc2)C1 [Example 69, 6-(4-((R)-3-aminopyrrolidine-1-yl)phenyl)-2-((R)-(5-fluoro-2-hydroxyphenyl)(1H-indole-2-yl)methyl)isoindolin-1-one] | 56 nM
CN1CCN(c2ccc(-c3ccc4c(c3)C(=O)N(C(c3nc5ccccc5[nH]3)c3cc(F)ccc3O)C4)cc2)CC1 (stereo not shown) [Example 18, 2-((1H-benzo[d]imidazole-2-yl)(5-fluoro-2-hydroxyphenyl)methyl)-6-(4-(4-methylpiperazine-1-yl)phenyl)isoindolin-1-one] | 130 nM
O=C1c2cc(-c3ccc(N4CCOCC4)cc3)ccc2CN1[C@@H](c1cc2ccccc2[nH]1)c1cc(F)ccc1O [Example 45, (R)-2-((5-fluoro-2-hydroxyphenyl)(1H-indole-2-yl)methyl)-6-(4-morpholinophenyl)isoindolin-1-one] | 280 nM
O=C1c2ccccc2CN1[C@H](c1cc2ccccc2[nH]1)c1cc(F)ccc1O [Example 24, (S)-2-((5-fluoro-2-hydroxyphenyl)(1H-indole-2-yl)methyl)isoindolin-1-one] | 3300 nM

Results, then the molecule that gave them:

IC50 | Compound
1000 nM | O=C1c2ccccc2CN1C(c1nc2ccccc2[nH]1)c1ccccc1O (stereo not shown) [Example 1, 2-((1H-benzo[d]imidazole-2-yl)(2-hydroxyphenyl)methyl)isoindolin-1-one]
50 nM | CN1CCC(N2CCN(c3ccc(-c4ccc5c(c4)C(=O)N([C@@H](c4cc6ccccc6[nH]4)c4cc(F)ccc4O)C5)cc3)CC2)CC1 [Example 65, (R)-2-((5-fluoro-2-hydroxyphenyl)(1H-indole-2-yl)methyl)-6-(4-(4-(1-methylpiperidine-4-yl)piperazine-1-yl)phenyl)isoindolin-1-one]
650 nM | O=C1c2cc(-c3ccc(N4CCNCC4)cc3)ccc2CN1[C@@H](c1cc2cc(F)ccc2[nH]1)c1cc(F)ccc1O [Example 51, (R)-2-((5-fluoro-1H-indole-2-yl)(5-fluoro-2-hydroxyphenyl)methyl)-6-(4-(piperazine-1-yl)phenyl)isoindolin-1-one]
150 nM | O=C1c2cc(-c3ccc(N4CCNCC4)cc3)ccc2CN1C(c1nc2ccccc2[nH]1)c1cc(Cl)ccc1O (stereo not shown) [Example 11, 2-((1H-benzo[d]imidazole-2-yl)(5-chloro-2-hydroxyphenyl)methyl)-6-(4-(piperazine-1-yl)phenyl)isoindolin-1-one]
> 10000 nM | O=C1c2ccccc2CN1[C@@H](c1cc2ccccc2[nH]1)c1ccccc1O [Example 19, (R)-2-((2-hydroxyphenyl)(1H-indole-2-yl)methyl)isoindolin-1-one]
32 nM | O=C1c2cc(-c3ccc(N4CCC(N5CCNCC5)CC4)cc3)ccc2CN1[C@@H](c1cc2ccccc2[nH]1)c1cc(F)ccc1O [Example 59, (R)-2-((5-fluoro-2-hydroxyphenyl)(1H-indole-2-yl)methyl)-6-(4-(4-(piperazine-1-yl)piperidine-1-yl)phenyl)isoindolin-1-one]
